{
  "source": "patent US11738022B2",
  "about": "“Methods for inducing pupil dilation” (THE REGENTS OF THE UNIVERSITY OF COLORADO, A BODY CORPORATE, priority 2017, dated 2023)",
  "tested_on": "pupil",
  "test": "Pupil dilation measured with Neuroptics pupillometer after α-2 agonist pre-treatment and/or phenylephrine",
  "format": "in vivo, human",
  "method": "Dilation medication used was Phenylephrine hydrochloride 10% (Akorn, Inc). Pupillometer used was a Neuroptics DP-2000 Binocular Pupillometer).\nDilation using phenylephrine hydrochloride 10% was conducted in both eyes of the test subject to use as a control against the other compounds being tested.\nAfter this, dilation using phenylephrine hydrochloride 2.5% or phenylephrine hydrochloride 10% was conducted to investigate the effects of the compound on pupil dilation.\nApracionidine 0.5% was administered in the right eye of the test subject three (3) times a day for 4 days. After this, dilation using phenylephrine hydrochloride 10% was conducted to investigate the effects of the compound on pupil dilation.\nAfter this, dilation using phenylephrine hydrochloride 10% was conducted to investigate the effects of the compound on pupil dilation.\nA washout period of multiple months was undertaken in between each experiment.\nPupil measurements were obtained using a Neuroptics pupillometer. Parameters were as follows: Scotopic conditions for 1 second, followed by photopic conditions for 4 seconds (1258.925 lux), followed by scotopic conditions for 10 seconds. This allowed for investigation of scotopic pupil size, photopic pupil size, and scotopic pupil size recovery after the light stimulus concluded.\nThe pupils of the subject's pretreated right eye and untreated control left eye were then measured under both scotopic and photopic conditions for baseline measurements (FIG. 6A). Photopic conditions consisted of a 4 second window where a light was shining in both eyes simultaneously. […]\nThe experiment was repeated at a higher dosage wherein the subject was administered a second ophthalmic formulation containing 10% phenylephrine to both eyes. 30 minutes after instillation of 10% phenylephrine, the pupils of the subject were then measured under both scotopic and photopic conditions (FIG. 6C). […] Because the area of a circle is dependent on the radius squared (area of a circle=πr^2), the increase in area that is created from a increasing the pupil dilation size is not linear.\nThe results were then compared.",
  "key": {"[1]": {"details": "phenylephrine hydrochloride 10% both eyes, no pre-treatment (FIG. 5B)"}, "[2]": {"details": "photopic conditions (1258.925 lux) after dilation with phenylephrine 10%"}, "[3]": {"details": "photopic conditions (1258.925 lux) after dilation with phenylephrine 10%, eye without pre-treatment"}},
  "note": "Where a name gives a salt, the structure may show the parent alone.",
  "data": [
    {"smiles": "CNC[C@H](O)c1cccc(O)c1", "note": "[Phenylephrine hydrochloride 10%, phenylephrine]", "values": [
      {"measurement": "CH LPupil Ave", "setting": "[1]", "result": 58, "unit": "%"},
      {"measurement": "CH LStim Ave", "setting": "[1]", "result": 57, "unit": "%"},
      {"measurement": "CH Left", "setting": "[1]", "result": 58, "unit": "%"},
      {"measurement": "CH RPupil Ave", "setting": "[1]", "result": 56, "unit": "%"},
      {"measurement": "CH RStim Ave", "setting": "[1]", "result": 57, "unit": "%"},
      {"measurement": "CH Right", "setting": "[1]", "result": 56, "unit": "%"},
      {"measurement": "CLAT LPupil Ave", "setting": "[1]", "result": 0.24, "unit": "s"},
      {"measurement": "CLAT LStim Ave", "setting": "[1]", "result": 0.22, "unit": "s"},
      {"measurement": "CLAT Left", "setting": "[1]", "result": 0.24, "unit": "s"},
      {"measurement": "CLAT RPupil Ave", "setting": "[1]", "result": 0.20, "unit": "s"},
      {"measurement": "CLAT RStim Ave", "setting": "[1]", "result": 0.22, "unit": "s"},
      {"measurement": "CLAT Right", "setting": "[1]", "result": 0.20, "unit": "s"},
      {"measurement": "DELTA LStim Ave", "setting": "[1]", "result": 4.63, "unit": "mm"},
      {"measurement": "DELTA Left", "setting": "[1]", "result": 4.65, "unit": "mm"},
      {"measurement": "DELTA RPupil Ave", "setting": "[1]", "result": 4.62, "unit": "mm"},
      {"measurement": "DELTA RStim Ave", "setting": "[1]", "result": 4.63, "unit": "mm"},
      {"measurement": "DV LStim Ave", "setting": "[1]", "result": 1.43, "unit": "mm/s"},
      {"measurement": "DV Left", "setting": "[1]", "result": 1.40, "unit": "mm/s"},
      {"measurement": "DV RPupil Ave", "setting": "[1]", "result": 1.45, "unit": "mm/s"},
      {"measurement": "DV RStim Ave", "setting": "[1]", "result": 1.43, "unit": "mm/s"},
      {"measurement": "DV Right", "setting": "[1]", "result": 1.45, "unit": "mm/s"},
      {"measurement": "MCV LStim Ave", "setting": "[1]", "result": 4.62, "unit": "mm/s"},
      {"measurement": "MCV Left", "setting": "[1]", "result": 4.78, "unit": "mm/s"},
      {"measurement": "MCV RPupil Ave", "setting": "[1]", "result": 4.46, "unit": "mm/s"},
      {"measurement": "MCV RStim Ave", "setting": "[1]", "result": 4.62, "unit": "mm/s"},
      {"measurement": "Max LStim Ave", "setting": "[1]", "result": 8.11, "unit": "mm"},
      {"measurement": "Max Left", "setting": "[1]", "result": 8.01, "unit": "mm"},
      {"measurement": "Max RStim Ave", "setting": "[1]", "result": 8.11, "unit": "mm"},
      {"measurement": "Max Right", "setting": "[1]", "result": 8.21, "unit": "mm"},
      {"measurement": "Min LStim Ave", "setting": "[1]", "result": 3.48, "unit": "mm"},
      {"measurement": "Min Left", "setting": "[1]", "result": 3.36, "unit": "mm"},
      {"measurement": "Min RPupil Ave", "setting": "[1]", "result": 3.59, "unit": "mm"},
      {"measurement": "Min RStim Ave", "setting": "[1]", "result": 3.48, "unit": "mm"},
      {"measurement": "Min Right", "setting": "[1]", "result": 3.59, "unit": "mm"},
      {"measurement": "Pupil size, Treated eye", "setting": "[2]", "result": 3.59, "unit": "mm"},
      {"measurement": "Surgical Work area, Treated eye", "setting": "[2]", "result": 10.12, "unit": "mm^2"},
      {"measurement": "Pupil size, Non-treated eye", "setting": "[3]", "result": 3.36, "unit": "mm"},
      {"measurement": "Surgical Work area, Non-treated eye", "setting": "[3]", "result": 8.862, "unit": "mm^2"}
    ]}
  ]
}
